We go through 9 compounds from the CheMixHub viscosity set.

Molecules are shown by their SMILES. Several values for one entry are separate records, joined by “and”; a condition that tells them apart may be missing. Equal entries are not always repeated. ± gives the uncertainty stated by the source.

On to `CCCCC[P+](CC)(CC)CC.O=S(=O)([N-]S(=O)(=O)C(F)(F)F)C(F)(F)F`, for which the viscosity (commonly the internal friction of a fluid under shear) runs as follows: (298.15 K, 101.3 kPa) 87.5 ± 18 mPa·s; (303.15 K, 101.3 kPa) 68.8 ± 14 mPa·s; (308.15 K, 101.3 kPa) 54.9 ± 11 mPa·s; (318.15 K, 101.3 kPa) 36.6 ± 7.3 mPa·s; (323.15 K, 101.3 kPa) 30.5 ± 6.1 mPa·s.
With `CCCC[N+]1(C)CCCC1.N#C[S-]`, the viscosity stood at 109.5 ± 23 mPa·s (298.15 K, 101 kPa); 70.36 ± 6.5 mPa·s (308.15 K, 101 kPa); 47.79 ± 3 mPa·s (318.15 K, 101 kPa).
In the case of `CCCC[n+]1ccn(C)c1.N#C[S-]`, the viscosity runs as follows: (298.15 K, 100 kPa) 57.4 ± 1.8 mPa·s and 62.81 ± 3.2 mPa·s; (308.15 K, 100 kPa) 37.36 ± 2 mPa·s and 40.56 ± 2.1 mPa·s; (318.15 K, 100 kPa) 25.8 ± 1.4 mPa·s.
On to `CCn1cc[n+](C)c1.N#C[S-]`, for which the viscosity is 26.31 ± 0.54 mPa·s (293.15 K, 101 kPa); 23.06 ± 1.1 mPa·s (298.15 K, 100 kPa); 19.68 ± 0.93 mPa·s (303.15 K, 100 kPa); 19.03 ± 0.49 mPa·s (303.15 K, 101 kPa); 16.97 ± 0.8 mPa·s (308.15 K, 100 kPa); 14.54 ± 0.69 mPa·s (2×) and 16.97 ± 0.8 mPa·s (313.15 K, 100 kPa). For the same compound, the viscosity was 14.3 ± 0.46 mPa·s (313.15 K, 101 kPa); 12.98 ± 0.61 mPa·s (2×) and 14.54 ± 0.69 mPa·s (318.15 K, 100 kPa); 11.49 ± 0.54 mPa·s (323.15 K, 100 kPa); 11.1 ± 0.45 mPa·s (323.15 K, 101 kPa).
In the case of `Cc1ccccc1[N+](=O)[O-]`, the viscosity reads like this: (298.15 K, 101 kPa) 2.1 ± 0.021 mPa·s; (298.15 K, 101.33 kPa) 2.089 ± 0.021 mPa·s; (308.15 K, 101.33 kPa) 1.727 ± 0.011 mPa·s; (323.15 K, 101.33 kPa) 1.348 ± 0.013 mPa·s.
Compound `CCCCCN` returned a viscosity (293.15 K, 101.33 kPa) of 0.656 ± 0.004 mPa·s; a viscosity (298.15 K, 101.33 kPa) of 0.609 ± 0.004 mPa·s; a viscosity (303.15 K, 101 kPa) of 0.5809 ± 0.005 mPa·s; a viscosity (303.15 K, 101.33 kPa) of 0.563 ± 0.003 mPa·s; a viscosity (308.15 K, 101.33 kPa) of 0.523 ± 0.003 mPa·s; a viscosity (313.15 K, 101.33 kPa) of 0.484 ± 0.003 mPa·s. Under “318.15 K, 101.33 kPa”, this compound had a viscosity of 0.457 ± 0.002 mPa·s.
Consider `CCCCCCCCCBr`, for which the viscosity is, setting by setting: (297.75 K, 101 kPa) 1.922 ± 0.042 mPa·s; (303.55 K, 101 kPa) 1.721 ± 0.037 mPa·s; (313.65 K, 101 kPa) 1.458 ± 0.032 mPa·s.
`CC(=O)[O-].CCCC[NH2+]CCO`: the viscosity is given as 1412 ± 70 mPa·s (293.15 K, 101 kPa); 921.1 ± 41 mPa·s (298.15 K, 101 kPa); 616.9 ± 24 mPa·s (303.15 K, 101 kPa); 423.3 ± 15 mPa·s (308.15 K, 101 kPa); 297 ± 9.3 mPa·s (313.15 K, 101 kPa); 212.7 ± 6 mPa·s (318.15 K, 101 kPa). The compound also came in with a viscosity (323.15 K, 101 kPa) of 155.3 ± 4 mPa·s.
As for `CCC(C)CO` (stereo unspecified), the viscosity (298.15 K, 101 kPa) is 4.868 ± 0.045 mPa·s; the viscosity (303.15 K, 101.33 kPa) was found to be 3.594 ± 0.048 mPa·s; the viscosity (313.15 K, 101.33 kPa) is given as 2.601 ± 0.035 mPa·s; the viscosity (323.15 K, 101.33 kPa) is given as 1.936 ± 0.026 mPa·s.
